Measurements from patent publication US7148232B2, “Oxazolo, thiazolo and selenazolo [4,5-c]-quinolin-4-amines and analogs thereof” (3M Innovative Properties Company, priority 1998, dated 2006).
Where a name gives a salt, the structure may show the parent alone. One block for each compound: values may come before it.

What was measured:
[1] = tested on: interferon (α); assay: Interferon (α) induction in human cells (in vitro human blood cell system, interferon by bioassay); format: cell-based; settings: human PBM's, 48 hours
Method: An in vitro human blood cell system was used to assess interferon induction by compounds of the invention. Activity is based on the measurement of interferon secreted into culture media. Interferon is measured by bioassay.
Whole blood is collected by venipuncture into EDTA vacutainer tubes. Peripheral blood mononuclear cells (PBM's) are separated from whole blood by using either LeucoPREP™ Brand Cell Separation Tubes (available from Becton Dickinson) or Ficoll-Paque® solution (available from Pharmacia LKB Biotechnology Inc, Piscataway, N.J.). […] 200 μL portions of PBM suspension are added to 96 well (flat bottom) sterile tissue culture plates (Becton Dickinson Labware, Lincoln Park, N.J.).
The compounds are solubilized in ethanol, dimethyl sulfoxide or tissue culture water then diluted with tissue culture water, 0.01N sodium hydroxide or 0.01N hydrochloric acid (The choice of solvent will depend on the chemical characteristics of the compound being tested.). Ethanol or DMSO concentration should not exceed a final concentration of 1% for addition to the culture wells. Compounds are initially tested in a concentration range of from about 0.1 μg/mL to about 5 μg/mL. Compounds which show induction at a concentration of 0.5 μg/mL are then tested in a wider concentration range.
The solution of test compound is added in a volume (less than or equal to 50 μL) to the wells containing 200 μL of diluted whole blood or of PBM's in media. Solvent and/or media is added to control wells (wells with no test compound) and as needed to adjust the final volume of each well to 250 μL. The plates are covered with plastic lids, vortexed gently and then incubated for 48 hours at 37° C. with a 5% carbon dioxide atmosphere.
Following incubation, the plates are covered with parafilm and then centrifuged at 1000 rpm for 10 to 15 minutes at 4° C. in a Damon IEC Model CRU-5000 centrifuge. Media (about 200 μL) is removed from 4 to 8 wells and pooled into 2 mL sterile freezing vials. Samples are maintained at −70° C. until analysis.
Interferon is determined by bioassay using A549 human lung carcinoma cells challenged with encephalomyocarditis. The details of the bioassay method have been described by G. L. Brennan and L. H. Kronenberg in “Automated Bioassay of Interferons in Micro-test Plates”, Biotechniques, June/Jul. […] The incubated cells are infected with an inoculum of encephalomyocarditis virus. The infected cells are incubated for an additional period at 37° C. before quantifying for viral cytopathic effect. The viral cytopathic effect is quantified by staining followed by spectrophotometric absorbance measurements. Results are expressed as alpha reference units/mL based on the value obtained for NIH HU IF-L standard.
Compounds of the invention were tested for their ability to induce interferon in human cells using the test method described above.

[2] = tested on: interferon (α); assay: Cytokine induction in human cells: interferon (α) secreted by PBMCs (ELISA or bioassay); format: cell-based; settings: 18 to 24 hours
Method: (§1) An in vitro human blood cell system was used to assess cytokine induction by compounds of the invention.
(§2) Whole blood is collected by venipuncture into EDTA vacutainer tubes from healthy human donors. […] The PBMC suspension is added to 48 well flat bottom sterile tissue culture plates (Costar, Cambridge, Mass. or Becton Dickinson Labware, Lincoln Park, N.J.) containing an equal volume of RPMI complete media containing test compound.
(§3) The compounds are solubilized in dimethyl sulfoxide (DMSO). The DMSO concentration should not exceed a final concentration of 1% for addition to the culture wells.
(§4) The solution of test compound is added at 60 μM to the first well containing RPMI complete and serial 3 fold dilutions are made. The PBMC suspension is then added to the wells in an equal volume, bringing the test compound concentrations to the desired range (0.12 to 30 μM). The final concentration of PBMC suspension is 1.5–2×10^6 cells/mL. The plates are covered with sterile plastic lids, mixed gently and then incubated for 18 to 24 hours at 37° C. in a 5% carbon dioxide atmosphere.
(§5) Following incubation the plates are centrifuged for 5–10 minutes at 1000 rpm (˜200×g) at 4° C. The cell culture supernatant is removed with a sterile polypropylene pipet and transferred to sterile polypropylene tubes. Samples are maintained at −30 to −70° C. until analysis. The samples are analyzed for interferon (α) by either ELISA or bioassay and for tumor necrosis factor (α) by ELISA
Interferon is determined by bioassay using A549 human lung carcinoma cells challenged with encephalomyocarditis. […] Briefly stated the method is as follows: A549 cells are incubated with dilutions of samples or a standard interferon at 37° C. for 24 hours. The incubated cells are then infected with an inoculum of encephalomyocarditis virus. The infected cells are incubated for an additional 24 hours at 37° C. before evaluating for viral cytopathic effect. The viral cytopathic effect is quantified by staining with crystal violet followed by visual scoring of the plates. Results are expressed as alpha reference units/mL based on the value obtained for NIH Human Leukocyte IFN standard.
Interferon (α) concentration is determined by ELISA using a Human Multi-Species kit from PBL Biomedical Laboratories, New Brunswick, N.J. according to the manufacturer's instructions.

[3] = tested on: tumor necrosis factor (α); assay: Cytokine induction in human cells: tumor necrosis factor (α) secreted by PBMCs (ELISA); format: cell-based; settings: 18 to 24 hours
Method: as §1, §2, §3, §4, §5
Tumor necrosis factor (α) (TNF) concentration is determined using ELISA kits available from Genzyme, Cambridge, Mass.; R&D Systems, Minneapolis, Minn.; or Pharmingen, San Diego, Calif. according to the manufacturer's instructions.

SMILES: CCc1nc2c(N)nc3ccccc3c2s1.Cl
melting point: 268 to 270 °C

SMILES: CCCc1nc2c(N)nccc2s1 (as salt: trifluoroacetate) [Example 62, 2-Propylpyrido[3,4-d][1,3]thiazol-4-amine Trifluoroacetate]
melting point: 160 to 162 °C

SMILES: Cl.Nc1nc2ccccc2c2scnc12.O (hydrate or solvate) [Example 5, Thiazolo[4,5-c]quinolin-4-amine Hydrochloride Hydrate]
melting point: 284 to 285 °C

SMILES: Cl.Nc1nc2ccccc2c2scnc12.O [Example 5, Thiazolo[4,5-c]quinolin-4-amine Hydrochloride Hydrate]
Interferon (α) Induction in Human Cells ([1]; Dose Concentration 0.01 μg/mL): −
Interferon (α) Induction in Human Cells ([1]; Dose Concentration 0.05 μg/mL): −
Interferon (α) Induction in Human Cells ([1]; Dose Concentration 0.10 μg/mL): −
Interferon (α) Induction in Human Cells ([1]; Dose Concentration 0.50 μg/mL): −
Interferon (α) Induction in Human Cells ([1]; Dose Concentration 1.0 μg/mL): +
Interferon (α) Induction in Human Cells ([1]; Dose Concentration 5.0 μg/mL): +
Interferon (α) Induction in Human Cells ([1]; Dose Concentration 10.0 μg/mL): +
Interferon (α) Induction in Human Cells ([1]; Dose Concentration 25.0 μg/mL): +
Interferon (α) Induction in Human Cells ([1]; Dose Concentration 50.0 μg/mL): +

SMILES: Nc1nc2ccccc2c2scnc12 [Example 6, Thiazolo[4,5-c]quinolin-4-amine]
melting point: 172.4 °C (dec.)

SMILES: CCc1nc2c[n+]([O-])c3ccccc3c2s1 [Example 7, 2-Ethylthiazolo[4,5-c]quinoline-5N-oxide]
melting point: 128 °C

SMILES: CCCc1nc2c[n+]([O-])c3ccccc3c2s1 [Example 11, 2-Propylthiazolo[4,5-c]quinoline-5N-oxide]
melting point: 123 °C

SMILES: CCCCc1nc2c(N)nc3ccccc3c2s1 [Example 18, 2-Butylthiazolo[4,5-c]quinolin-4-amine]
Interferon (α) Induction in Human Cells ([1]; Dose Concentration 0.01 μg/mL): −
Interferon (α) Induction in Human Cells ([1]; Dose Concentration 0.05 μg/mL): −
Interferon (α) Induction in Human Cells ([1]; Dose Concentration 0.10 μg/mL): +
Interferon (α) Induction in Human Cells ([1]; Dose Concentration 0.50 μg/mL): +
Interferon (α) Induction in Human Cells ([1]; Dose Concentration 1.0 μg/mL): +
Interferon (α) Induction in Human Cells ([1]; Dose Concentration 5.0 μg/mL): +
Interferon (α) Induction ([2]; Dose Concentration 0.12 μM): −
Interferon (α) Induction ([2]; Dose Concentration 0.37 μM): −
Interferon (α) Induction ([2]; Dose Concentration 1.11 μM): +
Interferon (α) Induction ([2]; Dose Concentration 3.33 μM): +
Interferon (α) Induction ([2]; Dose Concentration 10 μM): +
Interferon (α) Induction ([2]; Dose Concentration 30 μM): +
Tumor Necrosis Factor Induction ([3]; Dose Concentration 0.12 μM): +
Tumor Necrosis Factor Induction ([3]; Dose Concentration 0.37 μM): +
Tumor Necrosis Factor Induction ([3]; Dose Concentration 1.11 μM): +
Tumor Necrosis Factor Induction ([3]; Dose Concentration 3.33 μM): +
Tumor Necrosis Factor Induction ([3]; Dose Concentration 10 μM): +
Tumor Necrosis Factor Induction ([3]; Dose Concentration 30 μM): +

SMILES: Nc1nc2ccccc2c2sc(Cc3ccccc3)nc12 [Example 34, 2-Benzylthiazolo[4,5-c]quinolin-4-amine Hydrochloride]
Interferon (α) Induction in Human Cells ([1]; Dose Concentration 0.01 μg/mL): −
Interferon (α) Induction in Human Cells ([1]; Dose Concentration 0.05 μg/mL): −
Interferon (α) Induction in Human Cells ([1]; Dose Concentration 0.10 μg/mL): −
Interferon (α) Induction in Human Cells ([1]; Dose Concentration 0.50 μg/mL): −
Interferon (α) Induction in Human Cells ([1]; Dose Concentration 1.0 μg/mL): −
Interferon (α) Induction in Human Cells ([1]; Dose Concentration 5.0 μg/mL): −

SMILES: CCCCc1nc2c(N)nc3ccccc3c2o1 [Example 41, 2-Butyloxazolo[4,5-c]quinolin-4-amine]
Interferon (α) Induction in Human Cells ([1]; Dose Concentration 0.01 μg/mL): +
Interferon (α) Induction in Human Cells ([1]; Dose Concentration 0.05 μg/mL): +
Interferon (α) Induction in Human Cells ([1]; Dose Concentration 0.10 μg/mL): +
Interferon (α) Induction in Human Cells ([1]; Dose Concentration 0.50 μg/mL): +
Interferon (α) Induction in Human Cells ([1]; Dose Concentration 1.0 μg/mL): +
Interferon (α) Induction in Human Cells ([1]; Dose Concentration 5.0 μg/mL): +

SMILES: CCCc1nc2c(N)nccc2s1 [Example 62, 2-Propylpyrido[3,4-d][1,3]thiazol-4-amine Trifluoroacetate]
Interferon (α) Induction ([2]; Dose Concentration 0.12 μM): −
Interferon (α) Induction ([2]; Dose Concentration 0.37 μM): −
Interferon (α) Induction ([2]; Dose Concentration 1.11 μM): −
Interferon (α) Induction ([2]; Dose Concentration 3.33 μM): −
Interferon (α) Induction ([2]; Dose Concentration 10 μM): −
Interferon (α) Induction ([2]; Dose Concentration 30 μM): −
Tumor Necrosis Factor Induction ([3]; Dose Concentration 0.12 μM): −
Tumor Necrosis Factor Induction ([3]; Dose Concentration 0.37 μM): −
Tumor Necrosis Factor Induction ([3]; Dose Concentration 1.11 μM): −
Tumor Necrosis Factor Induction ([3]; Dose Concentration 3.33 μM): −
Tumor Necrosis Factor Induction ([3]; Dose Concentration 10 μM): −
Tumor Necrosis Factor Induction ([3]; Dose Concentration 30 μM): −

The next lines start with the values.

melting point: 152 to 155 °C
SMILES: Nc1nc2ccccc2c2sc(Cc3ccccc3)nc12 (as salt: hydrochloride) [Example 34, 2-Benzylthiazolo[4,5-c]quinolin-4-amine Hydrochloride]

melting point: 142 to 144 °C
SMILES: CCCCCc1nc2c[n+]([O-])c3ccccc3c2s1 [Example 15, 2-Pentylthiazolo[4,5-c]quinoline-5N-oxide]

melting point: 133 to 135 °C
SMILES: CCCCc1nc2c[n+]([O-])c3ccccc3c2s1 [Example 17, 2-Butylthiazolo[4,5-c]quinoline-5N-oxide]

melting point: 268 to 270 °C
SMILES: [O-][n+]1cc2nc(/C=C/c3ccccc3)sc2c2ccccc21 [Example 21, 2-(2-Phenyl-1-ethenyl)thiazolo[4,5-c]quinoline-5N-oxide]

melting point: 165 to 169 °C
SMILES: [O-][n+]1cc2nc(CCc3ccccc3)sc2c2ccccc21 [Example 23, 2-(2-Phenyl-1-ethyl)thiazolo[4,5-c]quinoline-5N-oxide]

melting point: 187 to 189 °C
SMILES: CC(C)(O)Cc1nc2c[n+]([O-])c3ccccc3c2s1 [Example 25, 2-Methyl-1-(thiazolo[4,5-c]quinolin-2-yl)-2-propanol-5N-oxide]

melting point: 138 to 140 °C
SMILES: CCOCc1nc2c[n+]([O-])c3ccccc3c2s1 [Example 27, 2-(Ethoxymethyl)thiazolo[4,5-c]quinoline-5N-oxide]

melting point: 185 to 186 °C
SMILES: [O-][n+]1cc2nc(Cc3ccccc3)sc2c2ccccc21 [Example 33, 2-Benzylthiazolo[4,5-c]quinoline-5N-oxide]

melting point: 143 to 145 °C
SMILES: CCCc1nc2c[n+]([O-])c3ccc(C)cc3c2s1 [Example 35, 8-Methyl-2-propylthiazolo[4,5-c]quinoline-5N-oxide]

melting point: 120 to 121 °C
SMILES: CCCCc1nc2c[n+]([O-])c3ccccc3c2o1 [Example 40, 2-Butyloxazolo[4,5-c]quinoline-5N-oxide]

melting point: 245 to 247 °C
SMILES: CS(=O)(=O)c1nc2c[n+]([O-])c3ccccc3c2s1 [Example 51, 2-(Methylsulfonyl)thiazolo[4,5-c]quinolin-5N-oxide]

melting point: 241 to 242 °C
SMILES: [O-][n+]1cc2nc(N3CCOCC3)sc2c2ccccc21 [Example 52, 2-(4-Morpholino)thiazolo[4,5-c]quinoline-5N-oxide]

melting point: 65 to 69 °C
SMILES: CCCCc1nc2c[n+]([O-])c3cccnc3c2s1 [Example 57, 2-Butylthiazolo[4,5-c][1,5]naphthyridine-5N-oxide]
